Test results from PMC12527173, “Cytotoxic, anti-inflammatory, antioxidant, and anti-glyoxalase-I evaluation of chelating substances: In silico and in vitro study” (PLOS One, 2025).
Read-outs that look alike come from different tables or passages of the source. Values belong to the molecule of their own block, whether it stands above or below them.

Experiments:
[1] = molecular target: T1, human recombinant Glo-I enzyme (rhGlo-I) (Homo sapiens, UniProt Q04760); experiment: Glyoxalase-I (Glo-I) enzyme inhibition assay; type: biochemical; details: for activity against Glo-I (in words): in vitro, compounds classed as inactive
T1 construct: N-terminal Met and 6-His tag (N); purchased R&D Systems; host or cells: E. coli
T1 sequence (Q04760 2-184 limits assumed): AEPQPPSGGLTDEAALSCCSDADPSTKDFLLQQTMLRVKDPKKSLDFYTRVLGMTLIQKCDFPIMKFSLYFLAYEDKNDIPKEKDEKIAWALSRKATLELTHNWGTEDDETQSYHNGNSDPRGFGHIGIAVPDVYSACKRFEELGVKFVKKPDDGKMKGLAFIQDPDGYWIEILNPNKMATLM
Description: Solvents and chemicals were procured from Sigma-Aldrich Co. and Acros (ThermoFisher Scientific, New Jersey, USA). […] The enzyme was obtained from R&D Systems® Corporation in the USA. Synthetic compounds were tested for their inhibitory effects on the enzyme using a 10 mM DMSO stock concentration in triplicates. The manufacturer’s protocol from R & D Systems, Inc. in Minneapolis, MN, USA was followed for the in vitro experiments. The reconstituted Glo-I enzyme (0.5 mg/mL) was thawed after being stored at −70°C in sterile deionized water. […] The monitoring was done at a wavelength of 240 nm for 200 seconds at 37°C. The substrate mixture was freshly concocted with a concentration of 100 mM glutathione and 100 mM methylglyoxal (MG) in assay buffer containing 0.5 M sodium phosphate dibasic/monobasic. It was then left undisturbed at room temperature for 15 minutes […]. The selected compounds for investigation are subsequently produced in testing concentration ranges using a 0.1 M solution of sodium phosphate dibasic/monobasic with a pH range of 7–7.2. The blank contained an assay buffer with MG substrate. The test compounds were combined with human recombinant Glo-I (50 µM) in a 96-well plate to determine their kinetic behavior.

[2] = SRB cytotoxicity assay, normal PDL fibroblasts; type: cell-based; details: normal periodontal ligament (PDL) fibroblasts, 72 h incubation, 0.1–200 µM range, read-out: Cytotoxicity (as of %Control) IC50 value PDL fibroblasts
Description: (§1) The cancer cell lines were cultured in DMEM supplemented with 10% FBS (Bio Whittaker, Verviers, Belgium), HEPES Buffer (10 mM), gentamicin (50 µg/mL), L-glutamine (100 μg/mL), streptomycin ([…]), penicillin (100 µg/mL), and 4-(2-hydroxyethyl)-1-piperazineethanesulfonic acid (HEPES) Buffer (Sigma, St. Luis, MO, USA). The Sulforhodamine B used was obtained from Santa Cruz Biotechnology, Inc. in Texas, USA. […] Periodontal ligament fibroblasts (PDL) were utilized to assess specific cytotoxicity. Cancer cell lines that have survived offer several benefits. They provide a consistent and uninterrupted source of cells, so bypassing any ethical concerns related to the use of human tissue. Additionally, they are cost-effective. The cytotoxicity levels were assessed using the Sulforhodamine B (SRB) colorimetric assay, provided by Santa Cruz Biotechnology, Inc. in Texas, USA. The Spectro Scan 80D UV-VIS spectrophotometer, manufactured by Sedico Ltd. in Nicosia, Cyprus, was employed for this cytotoxicity screening. The cells were co-incubated with substances or a reference agent at various doses ranging from 5 to 200 μg/mL. […] The reduction in cell viability was analyzed by plotting Dose-response curves and expressing the data as a percentage of the control optical density. The IC50 values were obtained using regression analysis.

[3] = system: HeLa uterine cervix adenocarcinoma cell line; experiment: SRB cytotoxicity assay, HeLa; type: cell-based; details: Homo sapiens, 72 h incubation, n = 12, read-out: Cytotoxicity (as of %Control) IC50 value Hela cervix malignancy
Description: as §1

[4] = system: Breast cancer cell line MCF7; experiment: SRB cytotoxicity assay, MCF7; type: cell-based; details: Homo sapiens, 72 h incubation, n = 12, read-out: Cytotoxicity (as of %Control) IC50 value MCF7 mammary malignancy
Description: as §1

[5] = system: T47D breast cancer cell line; experiment: SRB cytotoxicity assay, T47D; type: cell-based; details: Homo sapiens, 72 h incubation, n = 12, read-out: Cytotoxicity (as of %Control) IC50 value T47D mammary malignancy
Description: as §1

[6] = system: SW620 colorectal cancer cell line; experiment: SRB cytotoxicity assay, SW620; type: cell-based; details: Homo sapiens, SW-620, 72 h incubation, n = 12, read-out: Cytotoxicity (as of %Control) IC50 value SW620
Description: as §1

[7] = system: A375 human skin cancer cell line; experiment: SRB cytotoxicity assay, A375; type: cell-based; details: A-375, 72 h incubation, n = 12, read-out: Cytotoxicity (as of %Control) IC50 value A375 skin melanoma
Description: as §1

[8] = system: CACO2 colorectal cancer cell line; experiment: SRB cytotoxicity assay, CACO2; type: cell-based; details: Homo sapiens, Caco-2, 72 h incubation, n = 12, read-out: Cytotoxicity (as of %Control) IC50 value CACO2
Description: as §1

[9] = system: HCT116 colorectal cancer cell line; experiment: SRB cytotoxicity assay, HCT116; type: cell-based; details: Homo sapiens, HCT-116, 72 h incubation, n = 12, read-out: Cytotoxicity (as of %Control) IC50 value HCT116
Description: as §1

[10] = system: SW480 colorectal cancer cell line; experiment: SRB cytotoxicity assay, SW480; type: cell-based; details: Homo sapiens, 72 h incubation, n = 12, read-out: Cytotoxicity (as of %Control) IC50 value SW480
Description: as §1

[11] = system: A549 lung cancer cell line; experiment: SRB cytotoxicity assay, A549; type: cell-based; details: Homo sapiens, 72 h incubation, n = 12, read-out: Cytotoxicity (as of %Control) IC50 value A549 lung malignancy
Description: as §1

[12] = system: PANC1 pancreatic cell line; experiment: SRB cytotoxicity assay, PANC1; type: cell-based; details: Homo sapiens, PANC-1, 72 h incubation, n = 12, read-out: Cytotoxicity (as of %Control) IC50 value PANC1
Description: as §1

[13] = system: Human PC3 prostate cancer cell line; experiment: SRB cytotoxicity assay, PC3; type: cell-based; details: 72 h incubation, n = 12, read-out: Cytotoxicity (as of %Control) IC50 value PC3 prostate malignancy
Description: as §1

[14] = system: HT-29 colorectal cancer cell line; experiment: SRB cytotoxicity assay, HT29; type: cell-based; details: Homo sapiens, 72 h incubation, n = 12, read-out: Cytotoxicity (as of %Control) IC50 value HT29
Description: as §1

[15] = system: LPS-primed RAW 264.7 murine macrophages (nitrite / iNOS); experiment: Anti-inflammatory (nitrite) determination in LPS-primed macrophages; type: cell-based; details: Mus musculus, RAW264.7; LPS-primed RAW 264.7; nitrite by Griess; 24 h; n = 12; read-out: iNOS- IC50 value
Description: The RAW 264.7 mouse macrophage cell line (ATCC® TIB-71) was cultivated in high glucose DMEM with 10% foetal bovine serum (FBS), 100 U/mL penicillin, 100 μg/mL streptomycin, and 100 μg/mL L-glutamate. The cells were incubated at 37°C in a humidified environment with 95% air and 5% CO2. Confluent macrophages (2 x 10^5/well) were cultured with lipopolysaccharide (LPS; 20 μg/mL; Sigma, St. Luis, MO, USA) and indomethacin (25–200 μg/mL) as the positive control, along with various concentrations (5–200 μg/mL) of treatment compounds. The cells were incubated for 24 hours. 100 μL of Griess reagent were combined with 100 μL portions of cell culture medium and left to incubate at room temperature for 10 minutes. The absorbance at a wavelength of 550 nm was measured using a microplate reader, namely the Spectro Scan 80D UV-VIS spectrophotometer manufactured by Sedico Ltd. in Nicosia, Cyprus. The nitrite concentration was assessed by comparing it to a standard curve of sodium nitrite. A cytotoxicity protocol using SRB was conducted to assess the impact of the test substances under study on RAW 264.7 viability.

[16] = read-out: Trial one (%inhibtion)
[17] = read-out: Trial three (%inhibtion)
[18] = read-out: Trial two (%inhibtion)

activity against Glo-I (in words) [1]: inactive
SMILES: O=C(/C=C/c1ccc(O)c(O)c1)O[C@@H]1[C@H](O)C[C@@](O)(C(=O)O)C[C@H]1OC(=O)/C=C/c1ccc(O)c(O)c1 [3,4-diaffeoylquinic acid]

activity against Glo-I (in words) [1]: inactive
SMILES: Oc1cc(O)c2c(c1)O[C@H](c1ccc(O)c(O)c1)[C@@H](O)C2 [(+)Catechin]

activity against Glo-I (in words) [1]: inactive
SMILES: Oc1cc(O)c2c(c1)O[C@H](c1ccc(O)c(O)c1)[C@H](O)C2 [(-)Epicatechin]

activity against Glo-I (in words) [1]: ineffective
SMILES: NC(CO)C(=O)NNCc1ccc(O)c(O)c1O (stereo not shown) [Benserazide, reference compound]

inhibition at 3.125 µM [1, 16]: 15.4%
inhibition at 3.125 µM [1, 17]: 6.7%
inhibition at 3.125 µM [1, 18]: 7.9%
inhibition at 6.25 µM [1, 16]: 14.4%
inhibition at 6.25 µM [1, 17]: 9.01%
inhibition at 6.25 µM [1, 18]: 9.06%
inhibition at 12.5 µM [1, 16]: 25.3%
inhibition at 12.5 µM [1, 17]: 20.9%
inhibition at 12.5 µM [1, 18]: 12%
inhibition at 25 µM [1, 16]: 35.3%
inhibition at 25 µM [1, 17]: 29.6%
inhibition at 25 µM [1, 18]: 27.5%
inhibition at 50 µM [1, 16]: 55.6%
inhibition at 50 µM [1, 17]: 56%
inhibition at 50 µM [1, 18]: 53.5%
Maximum (descriptive statistics of enzyme inhibition) ([1]; highest mean inhibition over the tested concentrations, in % (unit assumed)): 55.00
IC50 ([1]; human recombinant Glo-I, triplicates, read-out: IC50 µM ± SD): 44.3 ± 18.6 µM
Minimum (descriptive statistics of enzyme inhibition) ([1]; lowest mean inhibition over the tested concentrations, in % (unit assumed)): 10.00
SMILES: O=C(/C=C/c1ccc(O)c(O)c1)O[C@H]1[C@H](O)[C@@H](O)[C@H](OCCc2ccc(O)c(O)c2)O[C@@H]1CO [Calceolarioside A]
IC50 at 72 h [2]: > 200000 nM
IC50 [3]: 208000 ± 34800 nM
IC50 [4]: 899000 ± 179000 nM
IC50 [5]: 45600 ± 3460 nM

activity against Glo-I (in words) [1]: loss of activity
SMILES: CCN(CC)C(=O)/C(C#N)=C/c1cc(O)c(O)c([N+](=O)[O-])c1 [Entacapone, reference compound]

activity against Glo-I (in words) [1]: ineffective
SMILES: Oc1ccc(CC2NCCc3cc(O)c(O)cc32)cc1 (stereo not shown) [Higenamine]

IC50 [15]: 20 nM
SMILES: COc1ccc2c(c1)c(CC(=O)O)c(C)n2C(=O)c1ccc(Cl)cc1 [Indomethacin]

activity against Glo-I (in words) [1]: inactive
SMILES: O=C(/C=C/c1ccc(O)c(O)c1)O[C@@H]1C[C@@](OC(=O)/C=C/c2ccc(O)c(O)c2)(C(=O)O)C[C@@H](O)[C@@H]1O [cynarine]

More lines, now with the values behind:

SMILES: Cc1c(O)c(=O)ccn1C [3-Hydroxy-1,2-dimethyl-4(1h)-pyridone]
activity against Glo-I (in words) [1]: inactive

SMILES: [O-][Cl+2]([O-])O [Chloric acid]
activity against Glo-I (in words) [1]: inactive

SMILES: CC(=NO)C(C)=NO [Dimethylglyoxime]
activity against Glo-I (in words) [1]: inactive

SMILES: COc1cccc2c1C(=O)c1c(O)c3c(c(O)c1C2=O)C[C@@](O)(C(=O)CO)C[C@@H]3O[C@H]1C[C@H](N)[C@H](O)[C@H](C)O1 [Doxorubicin, reference compound]
IC50 at 72 h [2]: > 200000 nM
IC50 [6]: 650 ± 30 nM
IC50 [3]: 5560 ± 80 nM
IC50 [7]: 280 ± 140 nM
IC50 [8]: 920 ± 30 nM
IC50 [9]: 920 ± 30 nM
IC50 [10]: 10 nM
IC50 [11]: 280 nM
IC50 [12]: 7170 ± 1070 nM
IC50 [4]: 4810 ± 210 nM
IC50 [13]: 130 ± 10 nM
IC50 [14]: 6 nM
IC50 [5]: 20 nM

SMILES: Oc1cc(O)c2c(c1)O[C@H](c1cc(O)c(O)c(O)c1)[C@@H](O)C2 [Gallocatechin]
activity against Glo-I (in words) [1]: inactive

SMILES: O=C(CCCCCCC(=O)Nc1ccccc1)NO [SAHA, reference compound]
activity against Glo-I (in words) [1]: do not demonstrate efficacy against Glo-I

SMILES: COc1ccc(C[C@@H](C)[C@@H](C)Cc2ccc(OC)c(OC)c2)cc1OC [Terameprocol]
activity against Glo-I (in words) [1]: inactive

SMILES: O=c1cccccc1O [Tropolon]
activity against Glo-I (in words) [1]: inactive

SMILES: CC(c1cc2ccccc2s1)N(O)C(N)=O (stereo not shown) [Zileuton, reference compound]
activity against Glo-I (in words) [1]: do not demonstrate efficacy against Glo-I

SMILES: CC(=O)Nc1nnc(S(N)(=O)=O)s1 [acetazolamide, reference compound]
activity against Glo-I (in words) [1]: did not exhibit any action against Glo-I
